Measured values: ChEMBL document CHEMBL1153384, “Synthesis, antimalarial activity, and preclinical pharmacology of a novel series of 4'-fluoro and 4'-chloro analogues of amodiaquine. Identification of a suitable "back-up" compound for N-tert-butyl isoquine” (J Med Chem, 2009)

Assays:
Plasmodium falciparum [1] = assay: Antimalarial activity against chloroquine-sensitive Plasmodium falciparum 3D7; type: functional, organism-based
Plasmodium falciparum [2] = assay: Antimalarial activity against chloroquine-resistant Plasmodium falciparum TM6; type: functional, organism-based
Plasmodium falciparum [3] = assay: Antimalarial activity against chloroquine-sensitive Plasmodium falciparum HB3; type: functional, organism-based
Plasmodium falciparum [4] = assay: Antimalarial activity against chloroquine-resistant Plasmodium falciparum TM4; type: functional, organism-based
Plasmodium falciparum [5] = assay: Antimalarial activity against […] Plasmodium falciparum Dd2; type: functional, organism-based
[6] = Biodistribution in cannulated Wistar rat urine assessed as [3H]labeled drug level at 54 umol/kg, iv after 5 hrs; type: ADME, organism-based; conditions: in vivo
Liver [7] = assay: Biodistribution in cannulated Wistar rat liver assessed as [3H]labeled drug level at 54 umol/kg, iv after 5 hrs; type: ADME, organism-based; conditions: in vivo
Zone of skin = assay: Biodistribution in cannulated Wistar rat skin assessed as [3H]labeled drug level at 54 umol/kg, iv after 5 hrs; type: ADME, organism-based; conditions: in vivo
[8] = Drug metabolism in cannulated Wistar rat assessed as biliary excretion of [3H]labeled drug level at 54 umol/kg, iv after 5 hrs; type: ADME, organism-based, Bile; conditions: in vivo
[9] = Drug metabolism in cannulated Wistar rat assessed as urinary excretion of [3H]labeled drug level at 54 umol/kg, iv after 5 hrs; type: ADME, organism-based, Urine; conditions: in vivo
Kidney [10] = assay: Biodistribution in cannulated Wistar rat kidney assessed as [3H]labeled drug level at 54 umol/kg, iv after 5 hrs; type: ADME, organism-based; conditions: in vivo
[11] = Partition coefficient, log P of the compound; type: physicochemical; conditions: octanol/water
Rattus norvegicus [12] = assay: Drug elimination in Wistar rat assessed as [3H]labeled drug level at 54 umol/kg, iv after 24 hrs; type: ADME, organism-based; conditions: in vivo
Kidney [13] = assay: Biodistribution in Wistar rat kidney assessed as [3H]labeled drug level at 54 umol/kg, iv after 24 hrs; type: ADME, organism-based; conditions: in vivo
Liver [14] = assay: Biodistribution in Wistar rat liver assessed as [3H]labeled drug level at 54 umol/kg, iv after 24 hrs; type: ADME, organism-based; conditions: in vivo
Lung = assay: Biodistribution in Wistar rat lung assessed as [3H]labeled drug level at 54 umol/kg, iv after 24 hrs; type: ADME, organism-based; conditions: in vivo
Rattus norvegicus [15] = assay: Biodistribution in Wistar rat assessed as remaining [3H]labeled drug level at 54 umol/kg, iv after 24 hrs; type: ADME, organism-based; conditions: in vivo
Rattus norvegicus [16] = assay: Biodistribution in Wistar rat assessed as remaining [3H]labeled drug level at 54 umol/kg, iv after 5 hrs; type: ADME, organism-based; conditions: in vivo
Rattus norvegicus [17] = assay: Biodistribution in Wistar rat assessed as remaining [3H]labeled drug level at 54 umol/kg, iv after 48 hrs; type: ADME, organism-based; conditions: in vivo
Rattus norvegicus [18] = assay: Biodistribution in Wistar rat assessed as remaining [3H]labeled drug level at 54 umol/kg, iv after 168 hrs; type: ADME, organism-based; conditions: in vivo
Rattus norvegicus [19] = assay: Metabolic stability in Wistar rat assessed as 2-[5-(7-Chloro-quinolin-4-ylamino)-2-fluoro-benzylamino]-2-methyl-propionic acids level at 54 umol/kg, iv administered as [3H]labeled drug after 5 hrs; type: ADME, organism-based; conditions: in vivo
Rattus norvegicus [20] = assay: Metabolic stability in Wistar rat assessed as [3-(tert-Butylamino-methyl)-4-fluoro-phenyl]-(7-chloro-1-oxy-quinolin-4-yl)-amine level at 54 umol/kg, iv administered as [3H]labeled drug after 5 hrs; type: ADME, organism-based; conditions: in vivo
[21] = Clearance in iv dosed mouse; type: ADME, organism-based; conditions: in vivo
[22] = Clearance in iv dosed rat; type: ADME, organism-based; conditions: in vivo
[23] = Oral bioavailability in mouse; type: ADME, organism-based; conditions: in vivo
[24] = Oral bioavailability in rat; type: ADME, organism-based; conditions: in vivo
Cytochrome P450 3A4 [25] = target: T1, Cytochrome P450 3A4 (Homo sapiens, UniProt P08684); assay: Inhibition of human CYP3A4 using PPR substrate; type: ADME
T1 sequence (P08684 whole entry): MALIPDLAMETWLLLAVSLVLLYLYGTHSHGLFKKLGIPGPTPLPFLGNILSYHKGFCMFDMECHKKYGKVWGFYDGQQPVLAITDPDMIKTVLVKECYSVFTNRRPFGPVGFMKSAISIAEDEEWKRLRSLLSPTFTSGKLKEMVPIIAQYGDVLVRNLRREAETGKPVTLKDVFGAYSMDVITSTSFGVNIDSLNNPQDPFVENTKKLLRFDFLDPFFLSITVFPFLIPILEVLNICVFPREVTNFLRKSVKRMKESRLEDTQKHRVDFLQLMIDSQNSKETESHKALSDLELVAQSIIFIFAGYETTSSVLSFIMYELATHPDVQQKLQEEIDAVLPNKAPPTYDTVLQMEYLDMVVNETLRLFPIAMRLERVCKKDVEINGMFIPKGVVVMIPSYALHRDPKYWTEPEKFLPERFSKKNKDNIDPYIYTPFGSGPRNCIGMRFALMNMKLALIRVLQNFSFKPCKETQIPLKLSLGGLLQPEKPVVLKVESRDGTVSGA

Cytochrome P450 1A2 = target: T2, Cytochrome P450 1A2 (Homo sapiens, UniProt P05177); assay: Inhibition of human CYP1A2; type: ADME
T2 sequence (P05177 whole entry): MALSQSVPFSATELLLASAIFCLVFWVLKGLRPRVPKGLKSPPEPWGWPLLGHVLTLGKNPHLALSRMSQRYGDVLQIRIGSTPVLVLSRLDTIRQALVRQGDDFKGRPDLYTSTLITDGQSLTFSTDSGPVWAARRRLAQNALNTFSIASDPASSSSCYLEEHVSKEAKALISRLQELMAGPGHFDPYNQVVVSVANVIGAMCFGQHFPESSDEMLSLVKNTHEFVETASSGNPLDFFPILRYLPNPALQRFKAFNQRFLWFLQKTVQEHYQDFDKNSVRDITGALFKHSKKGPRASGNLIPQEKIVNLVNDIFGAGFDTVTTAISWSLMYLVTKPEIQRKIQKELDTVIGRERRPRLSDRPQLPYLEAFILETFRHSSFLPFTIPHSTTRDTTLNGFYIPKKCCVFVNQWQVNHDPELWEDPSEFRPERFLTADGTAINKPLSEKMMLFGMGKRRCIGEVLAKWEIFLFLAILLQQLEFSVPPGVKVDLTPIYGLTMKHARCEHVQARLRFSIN

Cytochrome P450 2C9 = Cytochrome P450 2C9 (Homo sapiens, UniProt P11712); assay: Inhibition of human CYP2C9; type: ADME
Chain of Cytochrome P450 2C9 (P11712 whole entry): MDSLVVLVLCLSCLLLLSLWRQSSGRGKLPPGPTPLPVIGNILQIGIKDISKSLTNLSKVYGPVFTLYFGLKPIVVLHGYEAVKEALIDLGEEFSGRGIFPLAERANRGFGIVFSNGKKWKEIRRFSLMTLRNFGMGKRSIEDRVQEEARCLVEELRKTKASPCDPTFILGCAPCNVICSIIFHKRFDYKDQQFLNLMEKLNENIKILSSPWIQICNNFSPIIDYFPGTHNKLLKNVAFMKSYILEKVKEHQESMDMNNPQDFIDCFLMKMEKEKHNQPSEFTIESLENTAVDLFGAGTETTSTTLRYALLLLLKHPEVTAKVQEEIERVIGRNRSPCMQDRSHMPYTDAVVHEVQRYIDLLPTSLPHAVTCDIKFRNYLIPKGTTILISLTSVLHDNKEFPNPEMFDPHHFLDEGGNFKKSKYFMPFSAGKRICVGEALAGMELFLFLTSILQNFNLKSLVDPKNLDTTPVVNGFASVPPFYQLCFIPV

Cytochrome P450 2C19 = Cytochrome P450 2C19 (Homo sapiens, UniProt P33261); assay: Inhibition of human CYP2C19; type: ADME
Chain of Cytochrome P450 2C19 (P33261 whole entry): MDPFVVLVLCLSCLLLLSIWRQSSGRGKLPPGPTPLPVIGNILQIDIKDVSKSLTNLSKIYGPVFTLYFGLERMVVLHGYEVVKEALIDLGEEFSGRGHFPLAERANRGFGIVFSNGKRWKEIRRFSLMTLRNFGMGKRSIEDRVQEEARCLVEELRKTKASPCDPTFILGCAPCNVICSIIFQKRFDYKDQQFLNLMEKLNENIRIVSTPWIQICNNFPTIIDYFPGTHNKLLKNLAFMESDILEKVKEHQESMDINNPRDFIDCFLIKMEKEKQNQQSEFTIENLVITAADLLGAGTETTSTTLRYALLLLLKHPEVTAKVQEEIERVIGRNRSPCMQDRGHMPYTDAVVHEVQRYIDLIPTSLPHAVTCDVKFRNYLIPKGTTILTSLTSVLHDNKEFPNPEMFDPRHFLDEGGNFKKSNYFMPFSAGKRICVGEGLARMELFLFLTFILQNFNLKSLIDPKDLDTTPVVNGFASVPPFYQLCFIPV

[26] = Toxicity against Wistar rat hepatocytes after 6 hrs by trypan blue exclusion method; type: cell-based, Hepatocyte; conditions: read-out: TC50
Mus musculus [27] = assay: Toxicity in po dosed mouse assessed as maximal nonlethal dose administered as single dose; type: organism-based; conditions: in vivo
[28] = Toxicity in po dosed mouse assessed as drug level causing no observed adverse effects administered as single dose; type: organism-based; conditions: in vivo, read-out: Activity
Mus musculus [29] = assay: Toxicity in po dosed mouse assessed as induction of hepatotoxicity at drug dose above no observed adverse effects level; type: organism-based; conditions: in vivo
Mus musculus [30] = assay: Toxicity in po dosed mouse assessed as induction of hematological toxicity at drug dose above no observed adverse effects level; type: organism-based; conditions: in vivo
[31] = Distribution coefficient, log D at pH 7.4; conditions: octanol/water
Plasmodium falciparum [32] = assay: Antimalarial activity against chloroquine-resistant Plasmodium falciparum V1/S; type: functional, organism-based; conditions: V1S
Plasmodium falciparum [33] = assay: Antimalarial activity against chloroquine-resistant Plasmodium falciparum J164; type: functional, organism-based
Plasmodium yoelii = assay: Antimalarial activity as reduced parasitaemia against Plasmodium yoelii 17X infected CD1 mice (Mus musculus) perorally dosed daily for 4 days; type: functional; conditions: po, 96 h
Heme = assay: Binding affinity to heme assessed as binding constant for stepwise binding of 2 molecules of heme to 1 equivalent of drug in presence of 40% DMSO by UV-visible spectroscopy
Cytochrome P450 3A4 [34] = target: T1, Cytochrome P450 3A4; assay: Inhibition of human CYP3A4 using DEF substrate

`CC(C)(C)NCc1cc(Nc2ccnc3cc(Cl)ccc23)ccc1F` gave an IC50 (Plasmodium falciparum [1]) of 12.1 nM, an IC50 (Plasmodium falciparum [2]) of 21.9 nM and an IC50 (Plasmodium falciparum [3]) of 14.6 nM. The IC50 (Plasmodium falciparum [4]) was 17.3 nM, the IC50 (Plasmodium falciparum [5]) was 22.4 nM and the Activity [6] was 8.06 %ID. For the same compound, the Drug uptake (Liver [7]) was 17.49 %ID, the Drug uptake (Zone of skin) was 12.44 %ID and the Activity [8] was 9.16%. The Activity [9] was 8.06%, the Drug uptake (Kidney [10]) was 3.97 %ID and the logP [11] was 5.15. The Activity (Rattus norvegicus [12]) was 51.36%, the Drug uptake (Kidney [13]) was 1.48 %ID and the Drug uptake (Liver [14]) was 6.57 %ID. It also gave a Drug uptake (Lung) of 1.17 %ID, an Activity (Rattus norvegicus [15]) of 14.76% and an Activity (Rattus norvegicus [16]) of 38.54%. It also gave an Activity (Rattus norvegicus [17]) of 72.79%, an Activity (Rattus norvegicus [18]) of 1.22% and an Activity (Rattus norvegicus [19]) of 14.22%. For the same compound, the Activity (Rattus norvegicus [20]) was 3.55%, the clearance [21] was 40.4 mL/min/kg and the clearance [22] was 35 mL/min/kg. For the same compound, the bioavailability [23] was 37%, the bioavailability [24] was 100% and the IC50 (Cytochrome P450 3A4 [25]) was “Active”. For the same compound, the IC50 (Cytochrome P450 1A2) was 8800 nM, the IC50 (Cytochrome P450 2C9) was 52000 nM and the IC50 (Cytochrome P450 2C19) was 64000 nM. The CC50 at 6 h [26] was 385000 nM, the Activity (Mus musculus [27]) was 610 mg/kg and the NOAEL [28] was 300 mg/kg. For the same compound, the Activity (Mus musculus [29]) was “Toxic”, the Activity (Mus musculus [30]) was “Toxic” and the logD [31] was 2.4. It also gave an IC50 (Plasmodium falciparum [32]) of 26.1 nM, an IC50 (Plasmodium falciparum [33]) of 29.2 nM and an ED50 (Plasmodium yoelii) of 7.7 mg/kg. The ED90 (Plasmodium yoelii) was 10.6 mg/kg, the log Ks (Heme) was 5.68 and the IC50 (Cytochrome P450 3A4 [34]) was over 100000 nM.
